# Source: patent US8911953B2, “TDF-related compounds and analogs thereof, analogs and bioactive fragments” (Thrasos Innovation, Inc., priority 2005, dated 2014)
# No end group written: not given here.
# What was measured:
# [1] = test system: synovial membrane-derived mesenchymal stem cells; assay: Chondrogenic differentiation, extracellular matrix deposition by alcian blue staining; format: cell-based
# Excerpt: Influence of TDFRP compounds (SEQ ID NO 16, 33, 45, 217, 221) on chondrogenic differentiation of synovial membrane-derived mesenchymal stem cells leading to increased extracellular matrix deposition as determined by alcian blue staining. TDFRP compounds, SEQ ID NO:16, 33, 45, 217, and 221 correspond to Compounds E, A, C, B, and D, respectively.
# TDFRP compounds can be used to in the prophylaxis or treatment of diseases of the oral cavity, e.g., by affecting direct capping of bioactive molecules, or inducing the formation of reparative dentin and coronal or radicular pulp mineralization (Goldberg et al., Am J. Dent. 2003 February; 16(1):66-76). Further, TDFRP can be used in the prophylaxis or treatment of periodontal disease. […] TDFRP compounds can be used in the prophylaxis or treatment of traumatic brain injury, e.g., stroke, see, e.g., Cairns and Finkelstein, Phys Med Rehabil Clin N Am. 2003 February; 14(1 Suppl):S135-42). Intravenous administration of BMP-7 after ischemia improves motor function in stroke rats (Chang et al., Stroke. 2003 February; 34(2):558-64) and the TDFRP compounds may protect against or repair reperfusion injury. […] Thrasos compounds that bind to ALK3, a type I receptor for BMP, are therefore analyzed to examine if they induce chondrogenic differentiation leading to extra cellular matrix deposition in synovial membrane-derived mesenchymal stem cells. […]
# [2] = test system: vascular endothelial cells; assay: Smad 1, 5 phosphorylation in vascular endothelial cells (Western blot); format: cell-based; conditions: added to vascular endothelial cells in culture
# Protocol: (§1) Phosphorylation and nuclear translocation of Smads occurs following the activation of Type I and Type II receptors and subsequent signal transduction to intracellular Smad targets. Phosphorylation and nuclear translocation of R-Smad in HK-2, vascular endothelial, human prostate or other cells by TDFRP compounds is assayed by immuno-fluorescent microscopy methods, using anti-phospho Smad 1/5 antibodies according to the procedure of H Aoki, M Fujii, T Imamura, K Yagi, K Takehara, M Kato and K Miyazono. J. of Cell Sci. 114, 1483-1489, 2001) and by Western blot analysis (FIGS. 2, 3, 18, 2X).
# The detection of Smad phosphorylation by Western analysis, for example in LNCaP (prostate cancer cells) or EC (vascular endothelial cells) in culture medium can be examined after exposure to varying concentrations of TDFRP or control compounds. BMP-7 serves as a positive control. Cells are lysed in RIPA lysis buffer (50 mM Tris-HCl at pH 8.0, 150 mM NaCl, 1% NP-40, 0.5% sodium deoxycholate, 0.1% SDS) containing 1 mM PMSF, 1 mM sodium orthovanadate, and 10 ug/mL proteinase inhibitor cocktail. Lysates are incubated on ice for 15 minutes, centrifuged, and transferred supernatant to a clean tube. 50 to 100 ug is used for analysis by SDS-PAGE. Resolved proteins are electro transferred onto PVDF membrane. The blot is blocked by incubating in 3% non-fat dry milk prepared in PBS at room temperature for 1 hour with constant slow agitation. The blot is incubated with 1-2 ug/mL of primary antibody (rabbit anti-phospho-Smad 1) prepared in PBS-milk, overnight with agitation at 4 degree C., washed twice with PBS, and incubated with secondary antibody (anti rabbit HRP conjugated IgG, 1:3000 dilution) at room temperature for 2 hours with agitation. After washing in PBS-0.05% Tween 20 for 5 minutes and rinsing, Smad phosphorylation is detected via an HRP reaction according to manufacturer's instructions (FIGS. 2, 3, 18, 2X).
# as §1, with “HK-2” for “HK-2, vascular endothelial, human prostate or other”, “analysis in various cell types” for “analysis”, “27).” for “2X).”
# For detection of Smad phosphorylation by Western analysis, LNCaP (prostate cancer cells) or EC (vascular endothelial cells) in culture medium are exposed to varying concentrations of TDFRP or control compounds. BMP-7 served as a positive control. Cells are lysed in RIPA lysis buffer (50 mM Tris-HCl at pH 8.0, 150 mM NaCl, 1% NP-40, 0.5% sodium deoxycholate, 0.1% SDS) containing 1 mM PMSF, 1 mM sodium orthovanadate, and 10 ug/mL proteinase inhibitor cocktail. Lysates are incubated on ice for 15 minutes, centrifuged, and transferred supernatant to a clean tube. 50 to 100 ug is used for analysis by
# SDS-PAGE. Resolved proteins are electro transferred onto PVDF membrane. The blot is blocked by incubating in 3% non-fat dry milk prepared in PBS at room temperature for 1 hour with constant slow agitation. The blot is incubated with 1-2 ug/mL of primary antibody (rabbit anti-phospho-Smad 1) prepared in PBS-milk, overnight with agitation at 4 degree C., washed twice with PBS, and incubated with secondary antibody (anti rabbit HRP conjugated IgG, 1:3000 dilution) at room temperature for 2 hours with agitation. After washing in PBS-0.05% Tween 20 for 5 minutes and rinsing, Smad phosphorylation is detected via an HRP reaction according to manufacturer's instructions (FIGS. 3, 27).
# [3] = test system: rat osteosarcoma (17/2.8) cells; assay: Rat osteosarcoma (ROS) cell-based alkaline phosphatase assay; conditions: 0.02-200 uM, 2 days, relative to BMP-7 standard
# Protocol: BMP interactions with Type I and Type II receptors can induce alkaline phosphatase activity, a marker for osteoblast activity, in ROS cells. An assay procedure as described in Maliakal, J. C., Asahina, I., Hauschka, P. V., and Sampath, T. K. (1994) Growth factors 11, 227-234, was used to determine the biological activities of TDFRP compounds. In a typical experiment, rat osteosarcoma (17/2.8) cells are plated in 96 well plates (3.0×10^4 cells/well) and incubated overnight at 37 C in 5-6% CO2 incubator. The next day, healthy and confluent cells are treated with increasing concentrations of BMP-7 standard (1-10,000 ng/ml) served as positive control or TDFRP compounds (0.02-200 uM) prepared in medium containing 1% FBS and incubated for 2 days at 37 C in 5-6% CO2 incubator. The cellular content of alkaline phosphatase activity is determined by the method of Reddi and Huggins (Reddi, A. H., and Huggins, C. B (1972) Proc. Natl. Acad. Sci. USA 69, 1601-1605). Enzyme estimations are performed in 96 well plates. Following removal of culture medium, cells are washed with pre-warmed PBS (150 ul) and incubated in 100 ul of pre-warmed 1% Triton X-100 for 30 minutes at 37 C. Plates are centrifuged for 10 minutes at full speed, and recovered samples (15 ul) are assayed for enzyme activity by adding 90 ul p-nitrophenyl phosphate (Sigma) as a substrate in 0.05 M glycine-NaOH buffer, pH 9.3 and incubating for 20 minutes at 37 C. The reaction is stopped by adding 75 ul of 0.2 N NaOH/well and absorbance at 405/490 nm is measured on a Dynatech MR 700 plate reader. Results are expressed as relative activities compared to a BMP-7 standard.
# BMP interactions with Type I and Type II receptors can induce alkaline phosphatase activity, a marker for osteoblast activity, in ROS cells. An assay procedure as described earlier (Maliakal, J. C., Asahina, I., Hauschka, P. V., and Sampath, T. K. (1994) Growth factors 11, 227-234) was used to determine the biological activities of TDFRP compounds. In a typical experiment, rat osteosarcoma (17/2.8) cells are plated in 96 well plates (3.0×10^4 cells/well) and incubated overnight at 37° C. in 5-6% CO2 incubator. […] The cellular content of alkaline phosphatase activity is determined by the method of Reddi and Huggins (Reddi, A. H., and Huggins, C. B (1972) Proc. Natl. Acad. Sci. USA 69, 1601-1605). […] The reaction is stopped by adding 75 ul of 0.2 N NaOH/well and absorbance at 405/490 nm is measured on a Dynatech MR 700 plate reader. Results are expressed as relative activities compared to a BMP-7 standard.
Substance,deposition of the extracellular matrix [1],"phosphorylation and activation of intracellular Smad 1, 5 [2]",induction of alkaline phosphatase activity [3]
CIVNSSDDFLCKKYRS [SEQ ID NO:16],significantly increased,"phosphorylation and activation of intracellular Smad 1, 5",
CYFDDSSKVICKKYRS [SEQ ID NO:130],,,did not induce
CYFDDSSNVICKRYRS [SEQ ID NO:24],,"phosphorylation and activation of intracellular Smad 1, 5",
CYFDDSSNVLCKKYRS-NH2 (not fully specified (bridges); printed as CYFDDSSNVLCKKYRS-NH2; cysteine pairing not given here) [SEQ ID NO:33],,"phosphorylation and activation of intracellular Smad 1, 5",
CYFDDSSQVICKKYRS [SEQ ID NO:43],,"phosphorylation and activation of intracellular Smad 1, 5",
CYFDDSSQVLCKKYRS [SEQ ID NO:65],,,did not induce
CYFDDSSSVLCKKYRS [SEQ ID NO:209],,"phosphorylation and activation of intracellular Smad 1, 5",
CYFNDSSNCLLKKYRS [SEQ ID NO:229],,"phosphorylation and activation of intracellular Smad 1, 5",
CYFNDSSQVLCKRYRS [SEQ ID NO:221],significantly increased,,did not induce
